Measurements published in Sander's compilation of Henry's law constants (doi:10.1016/j.chroma.2014.03.040).

Experiment: Henry solubility constant Hcp at 298.15 K (mol/(m3 Pa))
Details: reference: Kim and Kim (2014)

| SMILES | Henry solubility constant Hcp |
| --- | --- |
| Cc1ccccc1C [1,2-dimethylbenzene] | 0.0019 |
| Cc1cccc(C)c1 [1,3-dimethylbenzene] | 0.0013 |
| Cc1ccc(C)cc1 [1,4-dimethylbenzene] | 0.0013 |
| CC(C)CO [2-methyl-1-propanol] | 0.22 |
| CC(C)CC=O [3-methylbutanal] | 0.021 |
| CC(=O)CC(C)C [4-methyl-2-pentanone] | 0.039 |
| c1ccccc1 [benzene] | 0.0017 |
| CCCC=O [butanal] | 0.061 |
| CCCCOC(C)=O [butyl ethanoate] | 0.024 |
| C=Cc1ccccc1 [ethenylbenzene] | 0.0027 |
| Cc1ccccc1 [methylbenzene] | 0.0015 |
| CCCCC=O [pentanal] | 0.039 |
